Results published in patent publication US8475823B2, “Baclofen formulation in a polyorthoester carrier” (Medtronic, Inc., priority 2008, dated 2013).

What was measured:
[1] = tested on: acetic acid induced bladder hypermotility (frequency of bladder contraction reflexes); experiment: Epidural infusion of baclofen in a rat model of bladder pain, intravesical acetic acid infusion (painful bladder activity); type: in vivo; conditions: female rat, epidural infusion 10 μg/day
Procedure: (§1) FIG. 2 is a graphic representation of epidural infusion of baclofen in rats treated with an intravesical infusion of acetic acid as described in Example 4. Baseline bladder activity was measured before epidural drug treatment. The columns and error bars represent the mean and SEM values of 10 rats per group. Asterisks indicate statistically significant dose effects compared to baseline as determined by post-hoc Dunnett Multiple Comparison Test.
(§2) An animal model that has been used frequently to study pelvic pain conditions is a rat model of bladder pain. In this model, a female rat was lightly anesthetized with isoflurane and a transurethral catheter was placed into the bladder. The catheter was connected to a pressure transducer so that the pressure within the bladder could be continuously monitored and recorded over time. Fluid was continuously infused into the bladder using a syringe pump at a rate of 0.1 mL/min to cause the bladder to contract repeatedly each time it became full. This is referred to as a volume-evoked micturition reflex or contraction. […]
In order to evaluate the effects of epidurally administered analgesics on normal and painful bladder activity (frequency of reflex bladder contractions), test drugs were continuously administered via an epidural catheter with the tip placed in the mid-lumbar epidural space. […] In the experiments depicted in FIGS. 1 and 2, the baseline bladder activity was measured before implanting the epidural infusion system, the infusion system was implanted on day 0 and cystometrograms were recorded on three consecutive days during which baclofen (10 μg/day) was infused into the lumbar epidural space.
Baclofen at 10 μg/day reduced acetic acid induced bladder hypermotility by approximately 3 fold on day 3. The frequency of bladder contraction observed during acetic acid infusion and epidural baclofen administration was similar to the baseline bladder activity measured during saline infusion (0.195±0.047 day 3 acetic acid and epidural baclofen vs 0.193±0.035 baseline saline).

[2] = tested on: normal bladder activity (frequency of reflex bladder contractions); experiment: Epidural infusion of baclofen in a rat model of bladder pain, intravesical saline infusion (normal bladder activity); type: in vivo; conditions: female rat, epidural infusion 10 μg/day
Procedure: as §1, with “1” for “2”, “saline.” for “acetic acid as described in Example 4.”, “treatment as described in Example 4.” for “treatment.”
as §2, with “contraction. A repeated series of bladder contractions (pressure spikes) over time was collected using this method. To mimic normal bladder activity, 0.9% saline was infused into the bladder; to mimic painful bladder activity, a dilute solution of acetic acid (0.5%) was infused into the bladder.” for “contraction.”

NCC(CC(=O)O)c1ccc(Cl)cc1 (centres unmarked) [baclofen, 4-amino-3-(4-chlorophenyl)butanoic acid]
frequency of bladder contraction reflexes during acetic acid infusion ([1]; 0.5% acetic acid, all three days, vs baseline): significantly reduced | reduction of acetic acid induced bladder hypermotility ([1]; day 3): approximately 3 fold | frequency of bladder contraction during acetic acid infusion and epidural baclofen administration ([1]; day 3, mean ± SEM, 10 rats per group): 0.195±0.047 reflexes per min | effects on normal bladder activity measured during saline infusion ([2]; days 1 and 2, vs baseline): minimal effects | contraction rate relative to the baseline reflex contraction rate ([2]; saline infusion, day three): statistically significant reductions
